Data from PubChem BioAssay AID1963426 (Molecular Pharmacology Branch, DTP, NCI, 2024).

Test system: 186277-243-T-J2-PDC complex spheroid growth, % test/control
Assay: Anticancer human tumor 186277-243-T-J2-PDC patient-derived colon adenocarcinoma cell line growth inhibition [Asc]
Conditions: for IC50: curve of first compound; for viability, T/C: stronger effect = lower value
Summary of the method: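 Spheroid model: tumor line + HUVEC + hMSC. Single agents and combinations; top conc. at/near clinical Cmax (10 microM if undetermined), half-log dilutions. DMSO stocks at 800-fold test concentration.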

[1] = second compound 0.1 µM, first compound 0.00316 µM
[2] = second compound 0.1 µM, first compound 0.01 µM
[3] = second compound 0.1 µM, first compound 0.0316 µM
[4] = second compound 0.1 µM, first compound 0.1 µM
[5] = second compound 0.316 µM, first compound 0.00316 µM
[6] = second compound 0.316 µM, first compound 0.01 µM
[7] = second compound 0.316 µM, first compound 0.0316 µM
[8] = second compound 0.316 µM, first compound 0.1 µM
[9] = second compound 1 µM, first compound 0.00316 µM
[10] = second compound 1 µM, first compound 0.01 µM
[11] = second compound 1 µM, first compound 0.0316 µM
[12] = second compound 1 µM, first compound 0.1 µM
[13] = second compound 3.16 µM, first compound 0.00316 µM
[14] = second compound 3.16 µM, first compound 0.01 µM
[15] = second compound 3.16 µM, first compound 0.0316 µM
[16] = second compound 3.16 µM, first compound 0.1 µM
[17] = second compound 10 µM, first compound 0.00316 µM
[18] = second compound 10 µM, first compound 0.01 µM
[19] = second compound 10 µM, first compound 0.0316 µM
[20] = second compound 10 µM, first compound 0.1 µM
[21] = second compound 0.1 µM, first compound 0.316 µM
[22] = second compound 0.1 µM, first compound 1 µM
[23] = second compound 0.316 µM, first compound 0.316 µM
[24] = second compound 0.316 µM, first compound 1 µM
[25] = second compound 1 µM, first compound 0.316 µM
[26] = second compound 1 µM, first compound 1 µM
[27] = second compound 3.16 µM, first compound 0.316 µM
[28] = second compound 3.16 µM, first compound 1 µM
[29] = second compound 10 µM, first compound 0.316 µM
[30] = second compound 10 µM, first compound 1 µM
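Note: spheroids exposed to agents for 7 days.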
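Throughout, for viability, T/C: 100% = DMSO vehicle control wells.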

With `Cc1nc(N2CCC3(CC2)COC(C)C3N)c(CO)nc1Sc1ccnc(N)c1Cl` (stereo not given) + CNC(C)C(=O)NC1CN(S(=O)(=O)c2cccc(S(=O)(=O)N3CCC4CCC(C(=O)NC(c5ccccc5)c5ccccc5)N4C(=O)C(NC(=O)C(C)NC)C3)c2)CCC2CCC(C(=O)NC(c3ccccc3)c3ccccc3)N2C1=O the IC50 (second compound 0.01 µM) was > 3000 nM, the IC50 (second compound 0.0316 µM) was > 3000 nM and the IC50 (second compound 0.1 µM) was > 3000 nM. The IC50 (second compound 0.316 µM) was > 3000 nM, the IC50 (second compound 1 µM) was > 3000 nM and the viability, T/C (second compound 0.01 µM, first compound 0.00949 µM) was 106%. For the same compound, the viability, T/C (second compound 0.01 µM, first compound 0.03 µM) was 102%, the viability, T/C (second compound 0.01 µM, first compound 0.0949 µM) was 112% and the viability, T/C (second compound 0.01 µM, first compound 0.3 µM) was 93%. It also gave a viability, T/C (second compound 0.01 µM, first compound 0.949 µM) of 97.8%, a viability, T/C (second compound 0.01 µM, first compound 3 µM) of 106% and a viability, T/C (second compound 0.0316 µM, first compound 0.00949 µM) of 98.8%. It also gave a viability, T/C (second compound 0.0316 µM, first compound 0.03 µM) of 111%, a viability, T/C (second compound 0.0316 µM, first compound 0.0949 µM) of 107% and a viability, T/C (second compound 0.0316 µM, first compound 0.3 µM) of 91.6%. For the same compound, the viability, T/C (second compound 0.0316 µM, first compound 0.949 µM) was 104%, the viability, T/C (second compound 0.0316 µM, first compound 3 µM) was 104% and the viability, T/C (second compound 0.1 µM, first compound 0.00949 µM) was 107%. For the same compound, the viability, T/C (second compound 0.1 µM, first compound 0.03 µM) was 101%, the viability, T/C (second compound 0.1 µM, first compound 0.0949 µM) was 103% and the viability, T/C (second compound 0.1 µM, first compound 0.3 µM) was 97.7%. For the same compound, the viability, T/C (second compound 0.1 µM, first compound 0.949 µM) was 102%, the viability, T/C (second compound 0.1 µM, first compound 3 µM) was 119% and the viability, T/C (second compound 0.316 µM, first compound 0.00949 µM) was 96%. It also gave a viability, T/C (second compound 0.316 µM, first compound 0.03 µM) of 104%, a viability, T/C (second compound 0.316 µM, first compound 0.0949 µM) of 106% and a viability, T/C (second compound 0.316 µM, first compound 0.3 µM) of 103%. For the same compound, the viability, T/C (second compound 0.316 µM, first compound 0.949 µM) was 101%, the viability, T/C (second compound 0.316 µM, first compound 3 µM) was 100% and the viability, T/C (second compound 1 µM, first compound 0.00949 µM) was 112%. It also gave a viability, T/C (second compound 1 µM, first compound 0.03 µM) of 110%, a viability, T/C (second compound 1 µM, first compound 0.0949 µM) of 99.6% and a viability, T/C (second compound 1 µM, first compound 0.3 µM) of 102%. The viability, T/C (second compound 1 µM, first compound 0.949 µM) was 105% and the viability, T/C (second compound 1 µM, first compound 3 µM) was 101%.

With `Cn1ncnc1[C@H]1c2n[nH]c(=O)c3cc(F)cc(c23)N[C@@H]1c1ccc(F)cc1` + Cc1c(S(C)(=O)=O)c(-c2cc(F)cc(N3CCN(c4ccc(NS(=O)(=O)c5ccc(NC(CCN6CCC(C(=O)OCCCP(=O)(O)O)CC6)CSc6ccccc6)c(S(=O)(=O)C(F)(F)F)c5)cc4)CC3)c2)c(-c2ccc(Cl)cc2)n1C(C)C the IC50 (second compound 0.1 µM) was > 100 nM, the IC50 (second compound 0.316 µM) was > 100 nM and the IC50 (second compound 1 µM) was > 100 nM. The IC50 (second compound 3.16 µM) was > 100 nM, the IC50 (second compound 10 µM) was 75 nM and the viability, T/C (second compound 0.1 µM, first compound 0.000316 µM) was 98.4%. It also gave a viability, T/C (second compound 0.1 µM, first compound 0.001 µM) of 85.5%, a viability, T/C [1] of 101% and a viability, T/C [2] of 101%. It also gave a viability, T/C [3] of 108%, a viability, T/C [4] of 99.1% and a viability, T/C (second compound 0.316 µM, first compound 0.000316 µM) of 111%. It also gave a viability, T/C (second compound 0.316 µM, first compound 0.001 µM) of 95.5%, a viability, T/C [5] of 114% and a viability, T/C [6] of 111%. It also gave a viability, T/C [7] of 98.3%, a viability, T/C [8] of 86.8% and a viability, T/C (second compound 1 µM, first compound 0.000316 µM) of 100%. The viability, T/C (second compound 1 µM, first compound 0.001 µM) was 103%, the viability, T/C [9] was 103% and the viability, T/C [10] was 91.5%. It also gave a viability, T/C [11] of 70%, a viability, T/C [12] of 63.8% and a viability, T/C (second compound 3.16 µM, first compound 0.000316 µM) of 106%. For the same compound, the viability, T/C (second compound 3.16 µM, first compound 0.001 µM) was 99%, the viability, T/C [13] was 113% and the viability, T/C [14] was 97.9%. For the same compound, the viability, T/C [15] was 66%, the viability, T/C [16] was 56.1% and the viability, T/C (second compound 10 µM, first compound 0.000316 µM) was 95.4%. For the same compound, the viability, T/C (second compound 10 µM, first compound 0.001 µM) was 95.9%, the viability, T/C [17] was 116% and the viability, T/C [18] was 96.1%. The viability, T/C [19] was 70.5% and the viability, T/C [20] was 43.2%.

In the case of `O=C(c1cc(Cc2n[nH]c(=O)c3ccccc23)ccc1F)N1CCN(C(=O)C2CC2)CC1` + Cc1c(S(C)(=O)=O)c(-c2cc(F)cc(N3CCN(c4ccc(NS(=O)(=O)c5ccc(NC(CCN6CCC(C(=O)OCCCP(=O)(O)O)CC6)CSc6ccccc6)c(S(=O)(=O)C(F)(F)F)c5)cc4)CC3)c2)c(-c2ccc(Cl)cc2)n1C(C)C, the IC50 (second compound 0.1 µM) is reported as > 10000 nM, the IC50 (second compound 0.316 µM) is reported as > 10000 nM and the IC50 (second compound 1 µM) is reported as 7980 nM. The IC50 (second compound 3.16 µM) was 4390 nM, the IC50 (second compound 10 µM) was 4740 nM and the viability, T/C [3] was 96.9%. The viability, T/C [4] was 87.8%, the viability, T/C [21] was 99.3% and the viability, T/C [22] was 114%. The viability, T/C (second compound 0.1 µM, first compound 3.16 µM) was 103%, the viability, T/C (second compound 0.1 µM, first compound 10 µM) was 91.8% and the viability, T/C [7] was 89.1%. It also gave a viability, T/C [8] of 101%, a viability, T/C [23] of 96.2% and a viability, T/C [24] of 104%. It also gave a viability, T/C (second compound 0.316 µM, first compound 3.16 µM) of 86.3%, a viability, T/C (second compound 0.316 µM, first compound 10 µM) of 65.8% and a viability, T/C [11] of 99.7%. It also gave a viability, T/C [12] of 101%, a viability, T/C [25] of 96.2% and a viability, T/C [26] of 96.5%. The viability, T/C (second compound 1 µM, first compound 3.16 µM) was 86.7%, the viability, T/C (second compound 1 µM, first compound 10 µM) was 40.7% and the viability, T/C [15] was 96%. For the same compound, the viability, T/C [16] was 93.5%, the viability, T/C [27] was 109% and the viability, T/C [28] was 93%. The viability, T/C (second compound 3.16 µM, first compound 3.16 µM) was 60.5%, the viability, T/C (second compound 3.16 µM, first compound 10 µM) was 24% and the viability, T/C [19] was 92.6%. It also gave a viability, T/C [20] of 95.1%, a viability, T/C [29] of 96.5% and a viability, T/C [30] of 88.9%. It also gave a viability, T/C (second compound 10 µM, first compound 3.16 µM) of 67.6% and a viability, T/C (second compound 10 µM, first compound 10 µM) of 17.9%.

Compound `O=C(c1ccc(F)c(F)c1Nc1ccc(I)cc1F)N1CC(O)([C@@H]2CCCCN2)C1` + Cc1c(S(C)(=O)=O)c(-c2cc(F)cc(N3CCN(c4ccc(NS(=O)(=O)c5ccc(NC(CCN6CCC(C(=O)OCCCP(=O)(O)O)CC6)CSc6ccccc6)c(S(=O)(=O)C(F)(F)F)c5)cc4)CC3)c2)c(-c2ccc(Cl)cc2)n1C(C)C has an IC50 (second compound 0.1 µM) of 93.4 nM, an IC50 (second compound 0.316 µM) of 73.3 nM and an IC50 (second compound 1 µM) of 65.9 nM. For the same compound, the IC50 (second compound 3.16 µM) was 57.8 nM, the IC50 (second compound 10 µM) was 52 nM and the viability, T/C [1] was 95.5%. For the same compound, the viability, T/C [2] was 92.4%, the viability, T/C [3] was 107% and the viability, T/C [4] was 47%. For the same compound, the viability, T/C [21] was 9.22%, the viability, T/C [22] was 4.73% and the viability, T/C [5] was 101%. The viability, T/C [6] was 97.8%, the viability, T/C [7] was 88.8% and the viability, T/C [8] was 35.7%. For the same compound, the viability, T/C [23] was 5.96%, the viability, T/C [24] was 2.79% and the viability, T/C [9] was 102%. For the same compound, the viability, T/C [10] was 99.2%, the viability, T/C [11] was 103% and the viability, T/C [12] was 20.7%. For the same compound, the viability, T/C [25] was 2.79%, the viability, T/C [26] was 1.09% and the viability, T/C [13] was 93.5%. The viability, T/C [14] was 93.1%, the viability, T/C [15] was 94.7% and the viability, T/C [16] was 10.2%. For the same compound, the viability, T/C [27] was 1.13%, the viability, T/C [28] was 0.48% and the viability, T/C [17] was 88.1%. For the same compound, the viability, T/C [18] was 93.5%, the viability, T/C [19] was 82% and the viability, T/C [20] was 7.98%. For the same compound, the viability, T/C [29] was 4.2% and the viability, T/C [30] was 0.52%.
